The values that follow come from US4317768A, “Dihydropyridine derivatives as stabilizers for vinyl chloride polymers” (priority 1977, dated 1982).

Structures are written as SMILES.

A short description of data set [1]: Polarographic study of the oxidation potential. To be noted: acetonitrile, 0.1 M lithium perchlorate, vitrous carbon electrode, calomel reference. It is filed as physicochemical. The source says: By a polarographic study of their oxidation potential, compared to well-known antioxidants such as 2,6-diterbutyl-4-methyl-phenol, 2-terbutyl-4-methoxy-phenol, 4-methoxy-phenol and hydroquinone.
Reference electrode: Calomel electrode containing a saturated solution of anhydrous lithium perchlorate as bridge liquid.
Working electrode: Vitrous carbon rotating electrode (2,500 r.p.m.)
Counter-electrode: Platinum electrode
Acetonitrile containing less than 0.1% of water and presenting no polarographic waves between -2.5 V and +2.5 V.
Anhydrous lithium perchlorate containing less than 1% of water.
A 0.1 M solution of lithium perchlorate in acetonitrile, treated and preserved on a 4 A molecular sieve.
Amplitude of exploration: 0 to 2 V
Speed of exploration: 10 mV/second
Sensitivity: 1.25 μA to 50 μA
Mean concentration: about 0.3×10^-3 mol/liter
Between each measurement, the vitrous carbon electrode and the platinum electrode were carefully cleaned with Joseph paper.

Data set [2] can be described thus: Static thermostability (GARDNER method), rigid PVC sheets, 210° C., 0.3 part stabilizer. How it is done: This study was carried out according to the GARDNER method, described in British Pat. No. 1,489,685.
The reference substance was 2-phenyl-indole, a well-known and widely used stabilizer.
The stabilizer (dihydropyridine or 2-phenyl-indole) and the other usual ingredients were mixed with powdered vinyl resins and the mixtures were calendered at a temperature of 160° C. to give rigid sheets.
The sheets were then heated in a thermostated oven (185° C. or 210° C.) for different intervals of time until incipient carbonization.
The coloration of the samples was compared to a standard scale of coloration, known as the GARDNER scale and was expressed in terms of the reference figures of the GARDNER scale.
This study was carried out with the following resin:
Polyvinyl chloride resin
SL 2016 is a solution of zinc-2-ethyl-hexanoate in a mixture of hydrocarbons boiling between 158° C. and 184° C.
The first trial was carried out at 210° C. with a resin containing 0.3 part by weight of stabilizer, the sheets being removed from the oven every three minutes over a period of 21 minutes.

A short description of data set [3]: Static thermostability (GARDNER), rigid co-polymer, 185° C. Conditions: for coloration, GARDNER scale: 0.1 part. How it is done: (§1) The study of the static thermostability of vinyl co-polymers was carried out according to the GARDNER method described above and, also in a more detailed manner in British Patent No. 1,489,685.
(a) Rigid co-polymer vinyl chloride-vinyl acetate
(§2) The following compound was prepared:
(§3) The sheets were heated in a ventilated oven at 185° C. and the following results were obtained: […]

Data set [4] is described as follows: Thermostability, flexible co-polymer (b), Metrastat oven 160° C. Conditions: 0.2 part. How it is done: as §1
(b) Flexible co-polymer vinyl chloride-vinyl acetate.
as §2
The resin was allowed to gel for 5 minutes at 120° C. and the sheets were heated at 160° C. in a Metrastat oven.

Data set [5] can be described thus: Thermostability, flexible co-polymer (c), Metrastat oven 160° C. To be noted: 0.3 part. How it is done: as §1
(c) Flexible co-polymer vinyl chloride-vinyl acetate
as §2
The sheets were heated in a Metrastat oven at 160° C. and the following results were obtained: […]

Data set [6] can be described thus: Thermostability, rigid co-polymer (d), ventilated oven 210° C. Conditions: 0.3 part. How it is done: as §1
(d) Rigid co-polymer vinyl chloride-vinylidene chloride
as §2
The sheets were heated in a ventilated oven at 210° C.

Data set [7] can be described thus: Comparison with 1,4-butanediol-β-aminocrotonate and methyl-β-aminocrotonate, rigid co-polymer, 185° C. Conditions: 0.5 part. How it is done: (a) Comparison with 1,4-butanediol-β-aminocrotonate and with methyl-β-aminocrotonate.
The following rigid co-polymer was prepared:
as §3

A short description of data set [8]: Comparison with stabilizer G1, 0.3 part, 185° C.
A short description of data set [9]: Comparison with 2-phenyl-indole, vinyl chloride-vinylidene chloride co-polymer, 210° C. Conditions: 0.3 part. How it is done: A second test was made using the following compound:
The sheets were heated in a ventilated oven at 210° C. and the following results were obtained: […]

A short description of data set [10]: Photostabilizing power, sheets exposed to the sun, co-polymer (a). How it is done: (§4) The sheets were exposed to the sun and their colorations were also determined according to the GARDNER method.
Data set [11] is described as follows: Photostabilizing power, sheets exposed to the sun, rigid co-polymer (b). How it is done:
as §4

As to `COc1ccc(O)c(C(C)(C)C)c1` [2-Terbutyl-4-methoxy-phenol], the Oxidation potential in data set [1] is 0.81 ± 0.01 volts.

With `COc1ccc(O)cc1` [4-Methoxy-phenol], in data set [1], the Oxidation potential came to 0.89 ± 0.01 volts.

Turning to `CC1=C(C(=O)OCCOc2ccccc2)CC(C(=O)OCCOc2ccccc2)=C(C)N1` [Compound 28], the “coloration, GARDNER scale” value in data set [2] (0 min) was 1; in [2] (3 min), 1; in data set [2] (6 min) it was 1; in data set [2] (9 min), 3; in data set [2] (12 min), 4; in data set [2] (15 min), 5. For the same compound, the “coloration, GARDNER scale” value was 10 in [2] (18 min); “Burnt” in data set [2] (21 min); 1 in [3] (0 min); 1 in data set [3] (2 min); 4 in data set [3] (4 min); 10 in data set [3] (6 min). Also, the “coloration, GARDNER scale” value in data set [3] (8 min) turned out to be 12; in data set [3] (10 min), 13; in data set [3] (12 min), 15; in data set [3] (14 min), 17; in data set [4] (0 min), 1; in [4] (30 min) it was 2. In addition, the “coloration, GARDNER scale” value turned out to be 6 in [4] (40 min); 12 in [4] (50 min); 15 in data set [4] (60 min); 1 in data set [5] (0 min); 1 in data set [5] (10 min); 2 in [5] (20 min). For the same compound, the “coloration, GARDNER scale” value was found to be 5 in data set [5] (30 min); 7 in [5] (40 min); 10 in data set [5] (50 min); 12 in data set [5] (60 min); 1.5 in [6] (0 min); 2 in data set [6] (3 min). Besides, the “coloration, GARDNER scale” value in data set [6] (6 min) came to 3; in [6] (9 min), 3.5; in [6] (12 min), 7; in data set [6] (15 min), 15; in data set [7] (0 min), 1; in data set [7] (2 min), 1. In addition, the “coloration, GARDNER scale” value came out at 5 in [7] (4 min); 7 in [7] (6 min); 11 in [7] (8 min); 13 in data set [7] (10 min); 17 in [7] (12 min); 1 in data set [8] (0 min). Further, the “coloration, GARDNER scale” value in [8] (2 min) is 1; in data set [8] (4 min), 2; in [8] (6 min), 4; in [8] (8 min), 5; in data set [8] (10 min) it was 9; in data set [8] (12 min), 11. Moreover, the “coloration, GARDNER scale” value is on record as 13 in data set [8] (14 min); 1.5 in data set [9] (0 min); 2 in data set [9] (3 min); 3 in data set [9] (6 min); 3.5 in data set [9] (9 min); 7 in [9] (12 min). The “coloration, GARDNER scale” value in data set [9] (15 min) was determined as 15. For the same compound, the “thermostabilizing properties, in words” value in [3] was “clearly show the thermostabilizing properties”. Besides, the “Colour in GARDNER degrees” value in [10] (After 24 hours) is reported as 1 GARDNER degrees; in [10] (Time 0), 1 GARDNER degrees; in [11] (After 24 hours), 3.5 GARDNER degrees; in [11] (Time 0), 1.5 GARDNER degrees.

The compound `Oc1ccc(O)cc1` [Hydroquinone] registered an Oxidation potential in [1] of 0.83 ± 0.01 volts.
